# Test results taken from patent US5827895A, “Hexahydrolupulones useful as anticancer agents” (Regents of the University of Minnesota, priority 1996, dated 1998).
# Where two headings read alike, the source gives them in different places. *1 amine or outer side, *2 acyl side, *3 side chain or, on linkers, in order; H or OH if unused. Where a SMILES comes first, the peptide text is derived from it. Bridges are numbered along the chain shown (N, C = ends). [ ]: non-standard residue; d: D form. The star is where a group is joined. X1 = NC1=N[C@@H]([C@H](N[*:1])C(=O)[*:2])C[C@H](O)N1; ΔAla(Z-3-ureido) = NC(=O)N/C=C(\N)C(=O)O; β3hOrn = NCCC[C@H](N)CC(=O)*; Dap = NC[C@H](N)C(=O)O
# Key:
# [1] = tested on: MRSA (Methicillin Resistant Staphylococcus aureus); experiment: Patient isolates evaluated for antibiotic sensitivity, MRSA
# Procedure: (§1) HHC was also tested for effectiveness against various bacterial isolates obtained from human subjects.
# [2] = tested on: VRE (Vancomycin Resistant Enterococcus faeclum)
# Procedure: as §1
# [3] = tested on: OxaRSA (Oxacillin Resistant Staphylococcus aureus); experiment: Patient isolates evaluated for antibiotic sensitivity, OxaRSA; conditions: patient G, OxaRSA
# Procedure: as §1
# CEM leukemia cells = conditions: Mannering et al.; cited from earlier work
# [4] = tested on: adriamycin- and vinblastin-resistant CEM cells; conditions: Mannering et al.; cited from earlier work
# Hela cells = conditions: Mannering et al.; cited from earlier work
# TB = conditions: currently utilized anti-TB drugs, for comparison; cited from earlier work
# Lactobacilli = conditions: U.S. Pat. No. 5,082,975; cited from earlier work
# [5] = Carson, 1951; cited from earlier work
# Listeria monocytogenes = conditions: U.S. Pat. Nos. 5,286,506; 5,455,038; cited from earlier work
compound,measurement,setting,value
"CC1(C)S[C@@H]2[C@H](NC(=O)[C@H](N)c3ccccc3)C(=O)N2[C@H]1C(=O)O [Amp, Ampicillin]",antibiotic sensitivity,"[1]; patient F, R > 8 μg/ml",R (R > 8 μg/ml)
same,antibiotic sensitivity,"[2]; patient A, R > 8 μg/ml",R (R > 8 μg/ml)
same,antibiotic sensitivity,"[2]; patient B, R > 8 μg/ml",R (R > 8 μg/ml)
same,antibiotic sensitivity,"[2]; patient C, R > 8 μg/ml",R (R > 8 μg/ml)
"CC(=O)OCC1=C(C(=O)O)N2C(=O)[C@@H](NC(=O)Cc3cccs3)[C@H]2SC1 [Ceph, Cephalothin]",antibiotic sensitivity,[3]; R > 32 μg/ml,R (R > 32 μg/ml)
same,antibiotic sensitivity,"[1]; patient D, R > 32 μg/ml",R (R > 32 μg/ml)
same,antibiotic sensitivity,"[1]; patient E, R > 32 μg/ml",R (R > 32 μg/ml)
"O=C(N[C@H](CO)[C@H](O)c1ccc([N+](=O)[O-])cc1)C(Cl)Cl [Chlor, Chloramphenicol]",antibiotic sensitivity,"[2]; patient A, threshold not given",S
same,antibiotic sensitivity,"[2]; patient B, threshold not given",S
same,antibiotic sensitivity,"[2]; patient C, threshold not given",S
"O=C(O)c1cn(C2CC2)c2cc(N3CCNCC3)c(F)cc2c1=O [Cipro, Ciprofloxacin]",antibiotic sensitivity,[3]; R > 2 μg/ml,R (R > 2 μg/ml)
same,antibiotic sensitivity,"[1]; patient D, R > 2 μg/ml",R (R > 2 μg/ml)
same,antibiotic sensitivity,"[1]; patient E, R > 2 μg/ml",R (R > 2 μg/ml)
same,antibiotic sensitivity,"[1]; patient F, R > 2 μg/ml",R (R > 2 μg/ml)
same,antibiotic sensitivity,"[2]; patient A, R > 2 μg/ml",R (R > 2 μg/ml)
same,antibiotic sensitivity,"[2]; patient B, R > 2 μg/ml",R (R > 2 μg/ml)
same,antibiotic sensitivity,"[2]; patient C, R > 2 μg/ml",R (R > 2 μg/ml)
"CCC[C@@H]1C[C@@H](C(=O)N[C@@H]([C@H]2O[C@H](SC)[C@H](O)[C@@H](O)[C@H]2O)[C@H](C)Cl)N(C)C1 [Clin, Clindamycin]",antibiotic sensitivity,[3]; R > 8 μg/ml,R (R > 8 μg/ml)
same,antibiotic sensitivity,"[1]; patient D, R > 8 μg/ml",R (R > 8 μg/ml)
same,antibiotic sensitivity,"[1]; patient E, R > 8 μg/ml",R (R > 8 μg/ml)
CC(C)=CCC1=C(O)C(C(=O)C(C)C)=C(O)C(CC=C(C)C)(CC=C(C)C)C1=O [Colupulone],activity against CEM leukemia cells,CEM leukemia cells,active
same,activity against resistant CEM cells,[4],active
same,activity against Hela cells,Hela cells,active against Hela cells
N[C@@H]1CON=C1O [Cycloserine],MIC,TB,147 to 195 µM
"CC[C@H]1OC(=O)[C@H](C)[C@@H](O[C@H]2C[C@@](C)(OC)[C@@H](O)[C@H](C)O2)[C@H](C)[C@@H](O[C@@H]2O[C@H](C)C[C@H](N(C)C)[C@H]2O)[C@](C)(O)C[C@@H](C)C(=O)[C@H](C)[C@@H](O)[C@]1(C)O [Eryth, Erythromycin]",antibiotic sensitivity,[3]; R > 8 μg/ml,R (R > 8 μg/ml)
same,antibiotic sensitivity,"[1]; patient D, R > 8 μg/ml",R (R > 8 μg/ml)
same,antibiotic sensitivity,"[1]; patient E, R > 8 μg/ml",R (R > 8 μg/ml)
CC[C@@H](CO)NCCN[C@@H](CC)CO [Ethambutol],MIC,TB,5 to 25 µM
CCc1cc(C(N)=S)ccn1 [Ethionamide],MIC,TB,15 µM
NNC(=O)c1ccncc1 [Isoniazid],MIC,TB,1.5 µM
"Cc1onc(-c2ccccc2)c1C(=O)N[C@@H]1C(=O)N2[C@@H]1SC(C)(C)[C@@H]2C(=O)O [Oxa, Oxacillin]",antibiotic sensitivity,[3]; R > 8 μg/ml,R (R > 8 μg/ml)
same,antibiotic sensitivity,"[1]; patient D, R > 8 μg/ml",R (R > 8 μg/ml)
same,antibiotic sensitivity,"[1]; patient E, R > 8 μg/ml",R (R > 8 μg/ml)
NC(=O)c1cnccn1 [Pyrazinamide],MIC,TB,122 µM
"CO[C@H]1/C=C/O[C@@]2(C)Oc3c(C)c(O)c4c(O)c(c(/C=N/N5CCN(C)CC5)c(O)c4c3C2=O)NC(=O)/C(C)=C\C=C\[C@H](C)[C@H](O)[C@@H](C)[C@@H](O)[C@@H](C)[C@H](OC(C)=O)[C@@H]1C [Rif, Rifampin]",antibiotic sensitivity,"[1]; patient F, threshold not given",S
same,antibiotic sensitivity,"[2]; patient B, threshold not given",S
"[H]/N=C(/N)N[C@H]1[C@H](O)[C@@H](O)[C@H](O[C@@H]2O[C@@H](C)[C@](O)(C=O)[C@H]2O[C@@H]2O[C@@H](CO)[C@H](O)[C@@H](O)[C@@H]2NC)[C@@H](N/C(N)=N\[H])[C@@H]1O [Strep, Streptomycin]",MIC,TB,1.8 to 17 µM
same,antibiotic sensitivity,"[2]; patient B, R > 2000 μg/ml",R (R > 2000 μg/ml)
"CN(C)[C@@H]1C(=O)C(C(N)=O)=C(O)[C@@]2(O)C(=O)C3=C(O)c4c(O)cccc4[C@@](C)(O)[C@H]3C[C@@H]12 [Tetra, Tetracycline]",antibiotic sensitivity,"[2]; patient A, threshold not given",S
same,antibiotic sensitivity,"[2]; patient B, threshold not given",S
"CN[C@H](CC(C)C)C(=O)N[C@H]1C(=O)N[C@@H](CC(N)=O)C(=O)N[C@H]2C(=O)N[C@H]3C(=O)N[C@H](C(=O)N[C@H](C(=O)O)c4cc(O)cc(O)c4-c4cc3ccc4O)[C@H](O)c3ccc(c(Cl)c3)Oc3cc2cc(c3O[C@@H]2O[C@H](CO)[C@@H](O)[C@H](O)[C@H]2O[C@H]2C[C@](C)(N)[C@H](O)[C@H](C)O2)Oc2ccc(cc2Cl)[C@H]1O [Vanco, Vancomycin]",antibiotic sensitivity,[3]; R > 16 μg/ml,S
same,antibiotic sensitivity,"[1]; patient D, R > 16 μg/ml",S
same,antibiotic sensitivity,"[1]; patient E, R > 16 μg/ml",S
same,antibiotic sensitivity,"[2]; patient A, R > 16 μg/ml",R (R > 16 μg/ml)
same,antibiotic sensitivity,"[2]; patient B, R > 16 μg/ml",R (R > 16 μg/ml)
same,antibiotic sensitivity,"[2]; patient C, R > 16 μg/ml",S
NCCC[C@H](N)CC(=O)N[C@H]1CNC(=O)[C@H]([C@H]2C[C@H](O)NC(N)=N2)NC(=O)/C(=C/NC(N)=O)NC(=O)[C@H](CO)NC(=O)[C@H](CO)NC1=O [Viomycin] (β3hOrn-[Dap]SS[ΔAla(Z-3-ureido)][X1]; lactam 1-C),MIC,TB,1.5 to 15 µM
CC(C)CCC1=C(O)C(C(=O)CC(C)C)=C(O)C(CCC(C)C)(CCC(C)C)C1=O [hexahydrolupulone],growth inhibition of certain Lactobacilli,Lactobacilli,inhibits the growth of certain Lactobacilli
same,stability relative to non-hydrogenated parent,[5],more stable than lupulone
"CC(C)CCC(=O)C1(O)C(O)=C(C(=O)CC(C)C)C(=O)C1CCC(C)C (stereo not shown) [tetrahydroisohumulone, reference compound]",growth inhibition of food pathogens,Listeria monocytogenes,"can inhibit the growth of food pathogens, such as Listeria monocytogenes"
Gentamicin,antibiotic sensitivity,"[2]; patient B, threshold not given",S
Peniciliin,antibiotic sensitivity,[3]; R > 8 μg/ml,R (R > 8 μg/ml)
same,antibiotic sensitivity,"[1]; patient D, R > 8 μg/ml",R (R > 8 μg/ml)
same,antibiotic sensitivity,"[1]; patient E, R > 8 μg/ml",R (R > 8 μg/ml)
same,antibiotic sensitivity,"[1]; patient F, R > 8 μg/ml",R (R > 8 μg/ml)
same,antibiotic sensitivity,"[2]; patient A, R > 8 μg/ml",R (R > 8 μg/ml)
same,antibiotic sensitivity,"[2]; patient B, R > 8 μg/ml",R (R > 8 μg/ml)
same,antibiotic sensitivity,"[2]; patient C, R > 8 μg/ml",R (R > 8 μg/ml)
